The record followed here is patent US11986471B2, “Compounds and methods of use” (Tango Therapeutics, Inc., priority 2018, dated 2024).

The target of assay [1] is T1, PRMT5 (Homo sapiens, UniProt O14744).
T1 construct: purchased Viva (custom protein)
Description: PRMT5 IC50 assay in the presence of SAM as cofactor. In kind it is biochemical. The method, boiled down: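 Three cofactor conditions are run: SAM-bound, MTA-bound and cofactor-free enzyme. IC50 is read from each; for the SAM and MTA arms it is divided by 1.5 and 13.5 respectively to give Ki.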

The test system of the next assay is HAP1 MTAP-intact. Description: SDMA in-cell western assay, HAP1 MTAP-intact cell line. In kind it is cell-based. The note with it: Homo sapiens. The method, boiled down: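 IC50 values come from SDMA in-cell western staining of HAP1 cells. The MTAP-intact line carries endogenous MTAP, while its MTAP-deleted counterpart lacks MTAP entirely. A selectivity ratio of at least 3 fold marks a compound as MTAP-selective.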

For assay [2], the target named is T1, PRMT5. Nature of the assay: PRMT5 IC50 assay in the presence of MTA as cofactor. In kind it is biochemical. Conditions: for IC50: PRMT5, MTA as cofactor. The method, boiled down: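 IC50 values were measured against human PRMT5 with SAM, with MTA, or with no cofactor. Ki was derived from IC50 as Ki=IC50/1.5 with SAM and Ki=IC50/13.5 with MTA, and the Ki(SAM)/Ki(MTA) ratio was then taken.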

The subject of another assay is HAP1 MTAP-deleted. Nature of the assay: SDMA in-cell western assay, HAP1 MTAP-deleted cell line. The note with it: for IC50: Homo sapiens, HAP1 MTAP-deleted cell line; for MTAP Intact/Deleted Ratio: IC50 ratio HAP1 MTAP-intact / HAP1 MTAP-deleted. In kind it is cell-based. The method, boiled down: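 Readout is cellular SDMA signal by in-cell western, with IC50 values derived from it. The cells are MTAP-null HAP1, matched to an isogenic MTAP-intact HAP1 line.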

In assay [3] the target is T1, PRMT5. Description: PRMT5 IC50 assay with no cofactor. In kind it is biochemical. The method, boiled down: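 Three cofactor conditions tested for PRMT5 inhibition: none, MTA and SAM, each giving an IC50. For conversion to Ki, the MTA-condition IC50 is divided by 13.5 and the SAM-condition IC50 by 1.5, and the two Ki values are expressed as a SAM/MTA ratio.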
[4] abbreviates: ratio between Ki in the presence of SAM and Ki in the presence of MTA.
Setting [5] is: ratio between the Ki in the presence of SAM and the Ki in the presence of MTA.

T1 sequence (O14744 whole entry): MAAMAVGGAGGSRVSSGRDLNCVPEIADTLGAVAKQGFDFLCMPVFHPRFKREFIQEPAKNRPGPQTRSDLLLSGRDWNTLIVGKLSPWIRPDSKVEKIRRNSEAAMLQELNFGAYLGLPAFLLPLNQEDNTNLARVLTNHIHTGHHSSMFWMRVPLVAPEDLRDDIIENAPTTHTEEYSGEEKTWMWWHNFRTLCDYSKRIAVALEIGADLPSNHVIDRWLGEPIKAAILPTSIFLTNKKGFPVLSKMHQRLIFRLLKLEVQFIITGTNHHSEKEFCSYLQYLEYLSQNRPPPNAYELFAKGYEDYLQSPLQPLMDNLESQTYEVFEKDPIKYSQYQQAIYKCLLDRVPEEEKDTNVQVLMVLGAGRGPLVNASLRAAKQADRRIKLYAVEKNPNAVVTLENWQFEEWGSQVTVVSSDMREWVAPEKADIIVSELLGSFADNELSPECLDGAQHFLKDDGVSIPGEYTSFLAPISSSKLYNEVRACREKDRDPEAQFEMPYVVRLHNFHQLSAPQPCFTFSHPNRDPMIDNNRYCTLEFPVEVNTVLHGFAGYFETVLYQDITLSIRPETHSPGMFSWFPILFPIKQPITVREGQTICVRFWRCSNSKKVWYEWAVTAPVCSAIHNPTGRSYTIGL
T1 sequence (Q9BQA1 whole entry partner): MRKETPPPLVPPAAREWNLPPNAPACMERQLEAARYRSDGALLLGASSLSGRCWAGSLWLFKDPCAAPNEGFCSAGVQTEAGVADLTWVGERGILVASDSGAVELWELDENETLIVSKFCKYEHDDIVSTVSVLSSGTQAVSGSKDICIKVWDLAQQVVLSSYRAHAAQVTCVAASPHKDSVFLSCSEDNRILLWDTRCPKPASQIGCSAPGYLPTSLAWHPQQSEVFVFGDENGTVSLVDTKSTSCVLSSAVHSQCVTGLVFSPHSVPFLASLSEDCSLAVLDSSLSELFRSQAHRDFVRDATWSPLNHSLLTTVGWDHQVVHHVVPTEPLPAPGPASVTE

As usually defined, the IC50 is the concentration at which inhibition is half-maximal. `CCN(C)c1nc(NC2COC2)cc(C(=O)NC[C@H](O)CN2CCc3c(ccc(OCc4cnco4)c3Cl)C2)n1` [Compound 303]: the IC50 on PRMT5 [1] was 50 to 500 nM; in the assay on HAP1 MTAP-intact it was at least 10 µM; on PRMT5 [2], 50 to 500 nM; with HAP1 MTAP-deleted it was 1000 to 10000 nM; on PRMT5 [3] (read-out: No Co-factor IC50) it was at least 5 µM. At PRMT5 [2] (setting [4]), the “SAM/MTA Ratio” value is “A (a Ki ratio greater than or equal to 10 fold between the Ki in the presence of SAM and the Ki in the presence of MTA)”. For the same compound, in the assay on HAP1 MTAP-deleted, the “MTAP Intact/Deleted Ratio” value was “C* (an IC50 ratio of less than 3 fold between the IC50 in the HAP1 MTAP-intact cell line and the HAP1 MTAP-deleted cell line)”.
As to `CC(C)N1CCN(c2nc(NC3COC3)cc(C(=O)NC[C@H](O)CN3CCc4cc(OCc5cnco5)ccc4C3)n2)CC1` [Compound 296, (S)—N-(2-hydroxy-3-(6-(oxazol-5-ylmethoxy)-3N-dihydroisoquinolin-2(1H)-yl)propyl)-2-(4-isopropylpiperazin-1-yl)-6-(oxetan-3-ylamino)pyrimidine-4-carboxamide], the IC50 at PRMT5 [1] is 50 to 500 nM; in the assay on HAP1 MTAP-intact, at least 10 µM; on PRMT5 [2] it was 50 to 500 nM; in the assay with HAP1 MTAP-deleted, 1000 to 10000 nM; at PRMT5 [3] (read-out: No Co-factor IC50), 0.5 to 5 µM. Moreover, at PRMT5 [2] (setting [4]), the “SAM/MTA Ratio” value is “A (a Ki ratio greater than or equal to 10 fold between the Ki in the presence of SAM and the Ki in the presence of MTA)”. Moreover, the “MTAP Intact/Deleted Ratio” value in the assay with HAP1 MTAP-deleted was “C* (an IC50 ratio of less than 3 fold between the IC50 in the HAP1 MTAP-intact cell line and the HAP1 MTAP-deleted cell line)”.
For the compound `CC(=O)N1CCC(Nc2cc(C(=O)NC[C@H](O)CN3CCc4nc(OCc5ocnc5C)ccc4C3)ncn2)CC1` [Compound 491, 6-[(1-acetyl-4-piperidyl)amino]-N-[(2S)-2-hydroxy-3-[2-[(4-methyloxazol-5-yl)methoxy]-7,8-dihydro-5H-1,6-naphthyridin-6-yl]propyl]pyrimidine-4-carboxamide], the half-maximal inhibitory concentration (IC50) on PRMT5 [1] is 50 to 500 nM; in the assay with HAP1 MTAP-intact, at least 10 µM; on PRMT5 [2], 50 to 500 nM; in the assay on HAP1 MTAP-deleted, 1000 to 10000 nM; against PRMT5 [3] it was at least 5 µM. Further, the “SAM/MTA Ratio” value at PRMT5 [2] (setting [5]) was “A (a Ki ratio greater than or equal to 10 fold between the Ki in the presence of SAM and the Ki in the presence of MTA)”. Besides, in the assay with HAP1 MTAP-deleted, the “MTAP Intact/Deleted Ratio” value is “C* (an IC50 ratio of less than 3 fold between the IC50 in the HAP1 MTAP-intact cell line and the HAP1 MTAP-deleted cell line)”.
Consider `Cc1ncoc1COc1ccc2c(c1)CCN(C[C@@H](O)CNC(=O)c1cc(NC3COC3)nc(N3CCN(C(=O)C4CC4)CC3)n1)C2` [Compound 400, 2-(4-cyclopropanecarbonylpiperazin-1-yl)-N-[(2S)-2-hydroxy-3-{6-[(4-methyl-1,3-oxazol-5-yl)methoxy]-1,2,3,4-tetrahydroisoquinolin-2-yl}propyl]-6-[(oxetan-3-yl)amino]pyrimidine-4-carboxamide], for which the IC50 is 50 to 500 nM on PRMT5 [1]; 1 to 10 µM in the assay with HAP1 MTAP-intact; 50 to 500 nM on PRMT5 [2]; below 1000 nM with HAP1 MTAP-deleted; 0.5 to 5 µM on PRMT5 [3] (read-out: No Co-factor IC50). The “SAM/MTA Ratio” value at PRMT5 [2] (setting [4]) is “A (a Ki ratio greater than or equal to 10 fold between the Ki in the presence of SAM and the Ki in the presence of MTA)”. Also, in the assay on HAP1 MTAP-deleted, the “MTAP Intact/Deleted Ratio” value is “B* (an IC50 ratio greater than or equal to 3 fold but lower than 10 fold between the IC50 in the HAP1 MTAP-intact cell line and the HAP1 MTAP-deleted cell line)”.
Take `CC(=O)N1CC(Nc2cc(C(=O)NC[C@H](O)CN3CCc4c(ccc(OCc5cnco5)c4Cl)C3)nc(C(C)(C)C)n2)C1` [Compound 360, (S)-6-((1-acetylazetidin-3-yl)amino)-2-(tert-butyl)-N-(3-(5-chloro-6-(oxazol-5-ylmethoxy)-3,4-dihydroisoquinolin-2(1H)-yl)-2-hydroxypropyl)pyrimidine-4-carboxamide]: the IC50 is 50 to 500 nM at PRMT5 [1]; at least 10 µM in the assay on HAP1 MTAP-intact; 50 to 500 nM on PRMT5 [2]; below 1000 nM in the assay with HAP1 MTAP-deleted; 0.5 to 5 µM on PRMT5 [3] (read-out: No Co-factor IC50). For the same compound, the “SAM/MTA Ratio” value on PRMT5 [2] (setting [4]) was “A (a Ki ratio greater than or equal to 10 fold between the Ki in the presence of SAM and the Ki in the presence of MTA)”. Besides, the “MTAP Intact/Deleted Ratio” value with HAP1 MTAP-deleted is “A* (an IC50 ratio greater than or equal to 10 fold between the IC50 in the HAP1 MTAP-intact cell line and the HAP1 MTAP-deleted cell line)”.
On to `CC(=O)N1CC(Nc2cc(C(=O)NC[C@H](O)CN3CCc4c(ccc(OCc5cnco5)c4Cl)C3)nc(N3CCCCC3)n2)C1` [Compound 532], for which the IC50 was 50 to 500 nM at PRMT5 [1]; at least 10 µM in the assay with HAP1 MTAP-intact; 50 to 500 nM on PRMT5 [2]; below 1000 nM in the assay on HAP1 MTAP-deleted; 0.5 to 5 µM against PRMT5 [3]. For the same compound, at PRMT5 [2] (setting [5]), the “SAM/MTA Ratio” value was “A (a Ki ratio greater than or equal to 10 fold between the Ki in the presence of SAM and the Ki in the presence of MTA)”. Moreover, the “MTAP Intact/Deleted Ratio” value in the assay on HAP1 MTAP-deleted is “A* (an IC50 ratio greater than or equal to 10 fold between the IC50 in the HAP1 MTAP-intact cell line and the HAP1 MTAP-deleted cell line)”.
On to `COCCN(C)c1cc(C(=O)NC[C@H](O)CN2CCc3cc(OCc4ocnc4C)ccc3C2)cc(NC2CCC2)n1` [Compound 554], for which the IC50 is 50 to 500 nM on PRMT5 [1]; below 1 µM with HAP1 MTAP-intact; 50 to 500 nM on PRMT5 [2]; below 1000 nM with HAP1 MTAP-deleted; 0.5 to 5 µM on PRMT5 [3]. The “SAM/MTA Ratio” value on PRMT5 [2] (setting [5]) is “A (a Ki ratio greater than or equal to 10 fold between the Ki in the presence of SAM and the Ki in the presence of MTA)”. Besides, in the assay with HAP1 MTAP-deleted, the “MTAP Intact/Deleted Ratio” value was “C* (an IC50 ratio of less than 3 fold between the IC50 in the HAP1 MTAP-intact cell line and the HAP1 MTAP-deleted cell line)”.
With `CC(=O)N1CCC(Nc2cc(C(=O)NC[C@H](O)CN3CCc4cc(OCc5ocnc5C)ccc4C3)ccn2)C(C)C1` (stereo partly drawn) [Compound 637, 2-((1-acetyl-3-methylpiperidin-4-yl)amino)-N—((S)-2-hydroxy-3-(6-((4-methyloxazol-5-yl)methoxy)-3,4-dihydroisoquinolin-2(1H)-yl)propyl)isonicotinamide], the IC50 is 50 to 500 nM at PRMT5 [1]; 1 to 10 µM in the assay with HAP1 MTAP-intact; 50 to 500 nM at PRMT5 [2]; 1000 to 10000 nM with HAP1 MTAP-deleted; at least 5 µM at PRMT5 [3] (read-out: No Co-factor IC50). Also, at PRMT5 [2] (setting [4]), the “SAM/MTA Ratio” value was “A (a Ki ratio greater than or equal to 10 fold between the Ki in the presence of SAM and the Ki in the presence of MTA)”. Also, the “MTAP Intact/Deleted Ratio” value in the assay on HAP1 MTAP-deleted was “B* (an IC50 ratio greater than or equal to 3 fold but lower than 10 fold between the IC50 in the HAP1 MTAP-intact cell line and the HAP1 MTAP-deleted cell line)”.
For `Cc1ncoc1COc1ccc2c(c1C)CCN(C[C@@H](O)CNC(=O)c1cc(NC3COC3)nc(N3CCN(C(=O)C4CC4)CC3)n1)C2` [Compound 414, 2-(4-cyclopropanecarbonylpiperazin-1-yl)-N-[(2S)-2-hydroxy-3-{5-methyl-6-[(4-methyl-1,3-oxazol-5-yl)methoxy]-1,2,3,4-tetrahydroisoquinolin-2-yl}propyl]-6-[(oxetan-3-yl)amino]pyrimidine-4-carboxamide], the IC50 at PRMT5 [1] was 50 to 500 nM; with HAP1 MTAP-intact, at least 10 µM; on PRMT5 [2] it was 50 to 500 nM; in the assay on HAP1 MTAP-deleted, below 1000 nM; at PRMT5 [3] (read-out: No Co-factor IC50), at least 5 µM. In addition, the “SAM/MTA Ratio” value at PRMT5 [2] (setting [4]) is “A (a Ki ratio greater than or equal to 10 fold between the Ki in the presence of SAM and the Ki in the presence of MTA)”. In the assay with HAP1 MTAP-deleted, the “MTAP Intact/Deleted Ratio” value was “A* (an IC50 ratio greater than or equal to 10 fold between the IC50 in the HAP1 MTAP-intact cell line and the HAP1 MTAP-deleted cell line)”.
As for `Cc1c(OCc2cnco2)ccc2c1CCN(C[C@@H](O)CNC(=O)c1ccnc(N[C@H]3C[C@@H](CO)C3)c1)C2` [Compound 487], the IC50 at PRMT5 [1] is 50 to 500 nM; in the assay on HAP1 MTAP-intact, at least 10 µM; on PRMT5 [2], 50 to 500 nM; in the assay with HAP1 MTAP-deleted, at least 10000 nM; against PRMT5 [3], at least 5 µM. In addition, the “SAM/MTA Ratio” value at PRMT5 [2] (setting [5]) was “A (a Ki ratio greater than or equal to 10 fold between the Ki in the presence of SAM and the Ki in the presence of MTA)”. Also, the “MTAP Intact/Deleted Ratio” value with HAP1 MTAP-deleted is “C* (an IC50 ratio of less than 3 fold between the IC50 in the HAP1 MTAP-intact cell line and the HAP1 MTAP-deleted cell line)”.
Consider `COCCN(C)c1nc(NC2COC2)cc(C(=O)NC[C@H](O)CN2CCc3c(ccc(OCc4cnco4)c3Cl)C2)n1` [Compound 314], for which the IC50 at PRMT5 [1] is 50 to 500 nM; in the assay with HAP1 MTAP-intact, at least 10 µM; at PRMT5 [2] it was 50 to 500 nM; with HAP1 MTAP-deleted it was 1000 to 10000 nM; at PRMT5 [3] (read-out: No Co-factor IC50), 0.5 to 5 µM. For the same compound, the “SAM/MTA Ratio” value at PRMT5 [2] (setting [4]) is “A (a Ki ratio greater than or equal to 10 fold between the Ki in the presence of SAM and the Ki in the presence of MTA)”. Moreover, the “MTAP Intact/Deleted Ratio” value with HAP1 MTAP-deleted is “C* (an IC50 ratio of less than 3 fold between the IC50 in the HAP1 MTAP-intact cell line and the HAP1 MTAP-deleted cell line)”.
